Key:
Type in all cases: cell-based
[1] = test system: GRE-mediated gene transcription; assay: A549-GRE-Renilla luciferase reporter assay; details: A549-GRE-Renilla cells
Excerpt: A synthetic GR responsive promoter consisting of three copies of the consensus glucocorticoid responsive element (GRE) (AGAACAnnnTGTACC) linked to a minimal herpes simplex thymidine kinase (HSV-TK) promoter was derived from the pGRE-SEAP plasmid purchased from Clontech. This was placed upstream of the Renilla luciferase reporter gene, contained in the pRLNull vector (Promega), to create the reporter construct p3GRE-renilla. The GRE containing promoter together with the renilla luciferase gene were then subcloned into the pcDNA3 vector, deleted of the CMV promoter, in order to generate the construct p3GRE-renilla-neo.
(§1) A549 cells were maintained in 5% CO2 at 37° C. in DMEM containing 10% foetal calf serum and 2 mM L-glutamine. Cells were stably transfected with p5NFkB-firefly-neo, p3GRE-renilla-neo or pAPI-firefly-neo using electroporation procedure. […] These cell lines were maintained in DMEM containing 10% foetal calf serum, 2 mM L-glutamine and 1 mg/ml G418.
(§2) Cells were plated into individual wells of a white 96-well viewplate at a cell density of 4×10^4/well in 100 μl of growth medium.
This cell line will provide a means of measuring direct effects of glucocorticoid receptor agonists on GRE-mediated gene transcription.

[2] = test system: NFkB driven firefly luciferase activity; assay: A549-NFkB-firefly luciferase reporter assay (FireLITE); details: A549-NFkB-firefly cells, stimulation with 0.5 ng/ml TNFα
Method: The firefly luciferase gene driven by a promoter containing five copies of the nuclear factor kB consensus sequence (GGGGACTTTCC) was derived from the pNF-kB-Luc plasmid, purchased from Stratagene, and subcloned into the pcDNA3 vector, deleted of the CMV promoter, in order to generate the construct p5NFkB-firefly-neo.
as §1, §2
The individual cell clones were first characterised for responsiveness in isolation.

[3] = test system: AP-1 driven firefly-luciferase activity; assay: A549-AP1-firefly luciferase reporter assay; details: A549-AP1-firefly cells, stimulation with 10 ng/ml EGF
Method: Similarly the minimal region of the Interleukin-2 promoter containing 4 AP-1 binding sites was cloned upstream of the firefly luciferase gene to generate pAP1-firefly-neo
as §1, §2
This cell line can therefore be used to monitor the repression of AP-1 signalling by glucocorticoid receptor ligands.

C[C@@H]1C[C@H]2[C@@H]3CCC4=CC(=O)C=C[C@]4(C)[C@@]3(F)[C@@H](O)C[C@]2(C)[C@@]1(O)C(=O)CO [dexamethasone]
maximal stimulation above basal of renilla luciferase activity [1]: 3 fold

TNFα
increase in firefly luciferase activity [2]: 4.2 fold

EGF: stimulatory factor used to activate AP-1 driven transcription
increase in expression of firefly luciferase [3]: 2.4 fold

From patent publication US20030091978A1, “Assay for glucocorticoid receptor signalling pathway” (priority 2000, published 2003)
